Data as given in PMC4741798, “Imaging of carbonic anhydrase IX with an ^111In-labeled dual-motif inhibitor” (Oncotarget, 2015).
Several values for one entry are separate records, joined by “and”; a condition that tells them apart may be missing. Identical values can stand only once. Entries after “also recorded” stand apart in the source; their conditions may differ.

Legend:
[1] = system: CAIX-expressing SK-RC-52 tumors; assay: SPECT/CT imaging of mice with SK-RC-52 tumors; type: in vivo; conditions: 14.8 MBq via tail vein
Method: Mice harboring subcutaneous SK-RC-52 tumors with the lower left flank were injected with 14.8 MBq (400 μCi) of [^111In]XYIMSR-01 in 250 μL of PBS (pH = 7.0) intravenously (tail vein). Anesthesia was then induced with 3% isofluorane and maintained at 2% isoflurane. Physiologic temperature was maintained with an external light source while the mouse was on the gantry. Imaging employed a CT-equipped Gamma Medica-Ideas SPECT scanner (Northridge, CA). SPECT data were acquired in 64 projections at 65 s per projection using medium energy pinhole collimators. A CT scan was performed in 512 projections at the end of each SPECT scan for anatomic co-registration. CT and SPECT scans were performed at 1, 4, 8, 24, and 48 h post-injection of [^111In]XYIMSR-01. Imaging data sets were reconstructed using the manufacturer's software. Display of images utilized Amide software (Dice Holdings, Inc. NY).

[2] = system: SK-RC-52 xenografts; assay: Biodistribution in mice bearing SK-RC-52 xenografts; type: in vivo; conditions: n = 5; for Biodistribution: Tumor: SK-RC-52 tumor
Method: Mice bearing SK-RC-52 xenografts within the lower left flank were injected intravenously with 740 kBq (20 μCi) of [^111In]XYIMSR-01 in 200 μL of PBS. For in vivo competition (binding specificity) studies, tumor-bearing mice were injected with 740 kBq (20 μCi) of [^111In]XYIMSR-01 and 200 nmole of 1 in 200 μL of PBS concurrently. At 1 h, 4 h, 8 h, 24 h and 48 h post-injection, mice were sacrificed by cervical dislocation and the blood was immediately collected by cardiac puncture. Heart, lungs, pancreas, spleen, fat, brain, muscle, small intestines, liver, stomach, kidney, urinary bladder, and tumor were collected. Each organ was weighed and the tissue radioactivity was measured with an automated gamma counter (1282 Compugamma CS, Pharmacia/LKBNuclear, Inc., Mt. Waverly, Vic. Australia). The percentage of injected dose per gram of tissue (% ID/g) was calculated by comparison with samples of a standard dilution of the initial dose. All measurements were corrected for radioactive decay.
Data were expressed as mean ± standard deviation (SD). Prism software (GraphPAD, San Diego, California) was used to determine statistical significance. Statistical significance was calculated using a paired t test. P-values < 0.0001 were considered significant.

[3] = 24 h + Block (co-injected 200 nmole of 1)

Compound: CC(CCC(=O)N[C@@H](CC(=O)N[C@@H](CC(=O)N[C@@H](CCCCn1cc(CCCC(=O)Nc2nnc(S(N)(=O)=O)s2)nn1)C(=O)NCCOCCOCCNC(=O)CN1CCN(CC(=O)[O-])CCN(CC(=O)[O-])CCN(CC(=O)[O-])CC1)C(=O)O)C(=O)O)(c1ccc(O)cc1)c1ccc(O)cc1.[111In+3] [[^111In]XYIMSR-01]
- retention of radioactivity seen by SPECT/CT at late time points (in words) ([1]; 24-48 h post-injection): nearly all of the radioactivity in the kidneys and other organs had been eliminated, with tumor still retaining significant amounts of radiotracer; also recorded: Retention of radioactivity was exclusively observed in tumors by 48 h
- tumor uptake seen by SPECT/CT (in words) ([1]; two mice): radiotracer uptake was observed within the tumors at 1 h post-injection; also recorded: radiotracer uptake in tumor as early as 1 h post-injection
- Biodistribution: Tumor ([2]; 1 h post-injection, i.v.): 26 %ID/g and 26.01 ± 5.74 %ID/g
- Biodistribution: Bladder ([2]; 1 h post-injection, i.v.): 4.90 ± 4.96 %ID/g
- Biodistribution: Blood ([2]; 1 h post-injection, i.v.): 1.34 ± 0.17 %ID/g
- Biodistribution: Brain ([2]; 1 h post-injection, i.v.): 1.23 ± 1.10 %ID/g
- Biodistribution: Fat ([2]; 1 h post-injection, i.v.): 1.03 ± 0.24 %ID/g
- Biodistribution: Heart ([2]; 1 h post-injection, i.v.): 5.98 ± 0.53 %ID/g
- Biodistribution: Kidney (kid) ([2]; 1 h post-injection, i.v.): 71.26 ± 8.74 %ID/g
- Biodistribution: Liver ([2]; 1 h post-injection, i.v.): 8.36 ± 0.73 %ID/g
- Biodistribution: Lung ([2]; 1 h post-injection, i.v.): 45.85 ± 19.89 %ID/g
- Biodistribution: Muscle (mm) ([2]; 1 h post-injection, i.v.): 2.34 ± 2.19 %ID/g
- Biodistribution: Pancreas ([2]; 1 h post-injection, i.v.): 3.81 ± 0.72 %ID/g
- Biodistribution: Sm. intestine ([2]; 1 h post-injection, i.v.): 9.37 ± 1.26 %ID/g
- Biodistribution: Spleen ([2]; 1 h post-injection, i.v.): 0.52 ± 0.04 %ID/g
- Biodistribution: Stomach ([2]; 1 h post-injection, i.v.): 16.71 ± 2.46 %ID/g
- Tumor/blood ratio ([2]; 1 h post-injection): 19.7 and 19.7 ± 4.8
- Tumor/kid (kidney) ratio ([2]; 1 h post-injection): 0.36 ± 0.06
- Tumor/mm (muscle) ratio ([2]; 1 h post-injection): 12.7 and 12.7 ± 5.8
- Biodistribution: Tumor ([2]; 4 h post-injection, i.v.): 20.83 ± 6.25 %ID/g
- Biodistribution: Bladder ([2]; 4 h post-injection, i.v.): 2.68 ± 1.89 %ID/g
- Biodistribution: Blood ([2]; 4 h post-injection, i.v.): 0.65 ± 0.06 %ID/g
- Biodistribution: Brain ([2]; 4 h post-injection, i.v.): 0.45 ± 0.06 %ID/g
- Biodistribution: Fat ([2]; 4 h post-injection, i.v.): 0.42 ± 0.22 %ID/g
- Biodistribution: Heart ([2]; 4 h post-injection, i.v.): 2.91 ± 0.45 %ID/g
- Biodistribution: Kidney (kid) ([2]; 4 h post-injection, i.v.): 41.52 ± 6.07 %ID/g
- Biodistribution: Liver ([2]; 4 h post-injection, i.v.): 4.00 ± 0.58 %ID/g
- Biodistribution: Lung ([2]; 4 h post-injection, i.v.): 17.85 ± 3.55 %ID/g
- Biodistribution: Muscle (mm) ([2]; 4 h post-injection, i.v.): 1.01 ± 0.28 %ID/g
- Biodistribution: Pancreas ([2]; 4 h post-injection, i.v.): 1.54 ± 0.40 %ID/g
- Biodistribution: Sm. intestine ([2]; 4 h post-injection, i.v.): 4.27 ± 0.69 %ID/g
- Biodistribution: Spleen ([2]; 4 h post-injection, i.v.): 0.51 ± 0.08 %ID/g
- Biodistribution: Stomach ([2]; 4 h post-injection, i.v.): 7.91 ± 1.28 %ID/g
- Tumor/blood ratio ([2]; 4 h post-injection): 31.9 ± 9.4
- Tumor/kid (kidney) ratio ([2]; 4 h post-injection): 0.50 ± 0.15
- Tumor/mm (muscle) ratio ([2]; 4 h post-injection): 21.4 ± 7.2
- Biodistribution: Tumor ([2]; 8 h post-injection, i.v.): 34.00 ± 15.16 %ID/g
- Biodistribution: Bladder ([2]; 8 h post-injection, i.v.): 2.28 ± 0.51 %ID/g
- Biodistribution: Blood ([2]; 8 h post-injection, i.v.): 0.48 ± 0.02 %ID/g
- Biodistribution: Brain ([2]; 8 h post-injection, i.v.): 0.59 ± 0.09 %ID/g
- Biodistribution: Fat ([2]; 8 h post-injection, i.v.): 0.45 ± 0.08 %ID/g
- Biodistribution: Heart ([2]; 8 h post-injection, i.v.): 2.61 ± 0.35 %ID/g
- Biodistribution: Kidney (kid) ([2]; 8 h post-injection, i.v.): 28.79 ± 21.35 %ID/g
- Biodistribution: Liver ([2]; 8 h post-injection, i.v.): 3.65 ± 0.65 %ID/g
- Biodistribution: Lung ([2]; 8 h post-injection, i.v.): 17.39 ± 8.99 %ID/g
- Biodistribution: Muscle (mm) ([2]; 8 h post-injection, i.v.): 1.09 ± 0.15 %ID/g
- Biodistribution: Pancreas ([2]; 8 h post-injection, i.v.): 1.61 ± 0.28 %ID/g
- Biodistribution: Sm. intestine ([2]; 8 h post-injection, i.v.): 4.31 ± 0.67 %ID/g
- Biodistribution: Spleen ([2]; 8 h post-injection, i.v.): 0.64 ± 0.07 %ID/g
- Biodistribution: Stomach ([2]; 8 h post-injection, i.v.): 8.74 ± 1.26 %ID/g
- Tumor/blood ratio ([2]; 8 h post-injection): 77.0 ± 32.5
- Tumor/kid (kidney) ratio ([2]; 8 h post-injection): 3.1 ± 3.1
- Tumor/mm (muscle) ratio ([2]; 8 h post-injection): 34.2 ± 16.0
- Biodistribution: Tumor [2, 3]: 1 %ID/g and 1.41 ± 0.20 %ID/g
- Biodistribution: Bladder [2, 3]: 0.20 ± 0.07 %ID/g
- Biodistribution: Blood [2, 3]: 0.03 ± 0.00 %ID/g
- Biodistribution: Brain [2, 3]: 0.03 ± 0.00 %ID/g
- Biodistribution: Fat [2, 3]: 0.02 ± 0.01 %ID/g
- Biodistribution: Heart [2, 3]: 0.04 ± 0.01 %ID/g
- Biodistribution: Kidney (kid) [2, 3]: 0.68 ± 0.14 %ID/g
- Biodistribution: Liver [2, 3]: 0.10 ± 0.02 %ID/g
- Biodistribution: Lung [2, 3]: 0.12 ± 0.02 %ID/g
- Biodistribution: Muscle (mm) [2, 3]: 0.02 ± 0.00 %ID/g
- Biodistribution: Pancreas [2, 3]: 0.03 ± 0.00 %ID/g
- Biodistribution: Sm. intestine [2, 3]: 0.08 ± 0.01 %ID/g
- Biodistribution: Spleen [2, 3]: 0.08 ± 0.01 %ID/g
- Biodistribution: Stomach [2, 3]: 0.14 ± 0.02 %ID/g
